Our source for the mutagenic call and call values is PubChem BioAssay AID1259408 (Genetic Toxicology Data Bank (GENE-TOX), 2018).

The source made the active and inactive calls. How the calls were made is not given here.

The subject of this series is GENE-TOX genotoxicity assays, various organisms and cells. Briefly: GENE-TOX mutagenicity studies. The settings on record: for call: Assay Type: In vivo carcinogenicity studies.
[1] abbreviates: Species/Cell Type: Chinese hamster lung (V79) cells, Assay Type: Forward gene mutation at the HPRT or ouabain locus, Assay Code: V79+, Evaluation Type: Evaluation A (Pre-1980).
Setting [2] is: Species/Cell Type: Fischer rat embryo (RLV/1706) cells, Assay Type: Cell transformation, viral enhanced, Assay Code: CTR+, Evaluation Type: Evaluation A (Pre-1980).
Setting [3] is: Species/Cell Type: Nonhuman, Assay Type: Sister-chromatid exchange (SCE) in vitro, Assay Code: SC2+D, Dose Response: With dose response, Evaluation Type: Evaluation A (Pre-1980).
Where [4] appears, read: Species/Cell Type: Saccharomyces cerevisiae, Assay Type: Mitotic recombination or gene conversion, Assay Code: YEH+, Evaluation Type: Evaluation A (Pre-1980).
Where [5] appears, read: Species/Cell Type: Salmonella typhimurium, Assay Type: Forward and reverse gene mutation, host-mediated assay, Assay Code: HMA+, Evaluation Type: Evaluation A (Pre-1980).
[6] abbreviates: Species/Cell Type: Syrian hamster embryo (SA7/SHE) cells, Assay Type: Cell transformation, viral enhanced, Assay Code: CT7+, Evaluation Type: Evaluation A (Pre-1980).
The mark [7] stands for this setting: Species/Cell Type: Syrian hamster embryo (SHE) cells, Assay Type: Cell transformation, clonal assay, Assay Code: CTC+, Evaluation Type: Evaluation A (Pre-1980).
The mark [8] stands for this setting: Species/Cell Type: Mammalian polychromatic erythrocytes, Assay Type: Micronucleus test, chromosome aberrations, Assay Code: MNTT, Evaluation Type: Evaluation B (Post-1980).
[9] abbreviates: Species/Cell Type: Human lymphocytes, Assay Type: Sister-chromatid exchange (SCE) in vitro, Assay Code: SCL+, Evaluation Type: Evaluation B (Post-1980).
[10] abbreviates: Species/Cell Type: Drosophila melanogaster, Assay Type: Sex-linked recessive lethal gene mutation, Assay Code: SRLT, Evaluation Type: Evaluation A (Pre-1980).

In the case of `CC(=O)OC/N=[N+](/C)[O-]`, the mutagenic call under setting [1] is “active; positive”; the mutagenic call (Species/Cell Type: Drosophila melanogaster, Assay Type: Sex-linked recessive lethal gene mutation, Assay Code: SRL+, Evaluation Type: Evaluation A (Pre-1980)) is “active; positive”; the mutagenic call (Species/Cell Type: Escherichia coli polA (W3119 vs P3478), Assay Type: Rec-assay, DNA effects (bacterial DNA repair), Assay Code: RE1+, Evaluation Type: Evaluation A (Pre-1980)) was “active; positive”; the mutagenic call under setting [2] was “active; positive”; the mutagenic call (Species/Cell Type: Mouse (BALB/c-3T3) cells, Assay Type: Cell transformation, Assay Code: CTB+, Evaluation Type: Evaluation A (Pre-1980)) was “active; positive”; the mutagenic call (Species/Cell Type: Mouse, Sex: Male, Assay Type: Sperm morphology, Assay Code: SPI-, Evaluation Type: Evaluation A (Pre-1980)) is “inactive; negative”. The mutagenic call reads like this: under setting [3], “active; positive”; (Species/Cell Type: Nonhuman, Assay Type: Sister-chromatid exchange (SCE) in vivo, Assay Code: SC3+, Evaluation Type: Evaluation B (Post-1980)) “active; positive”; under setting [4], “active; positive”; under setting [5], “active; positive”; under setting [6], “active; positive”; under setting [7], “active; positive”. Moreover, the call (Species/Cell Type: Nonhuman, Assay Code: CCG+, Evaluation Type: Evaluation A (Pre-1980)) was “active; positive”.
Turning to `C[n+]1c(-c2ccc(N)cc2)c2cc(N)ccc2c2ccc(N)cc21`, the mutagenic call (Species/Cell Type: Salmonella typhimurium (one or more of the five standard strains: TA98, TA100, TA1535, TA1537, and TA1538), Assay Type: Histidine reverse gene mutation, Ames assay, Assay Code: SAL+, Evaluation Type: Evaluation A (Pre-1980)) was “active; positive”.
With `CC(S)C(=O)NCC(=O)O` (centres undefined), under setting [8], the mutagenic call is on record as “no conclusion”.
Consider `O=[As](O)(O)O`, for which the mutagenic call is, setting by setting: (Species/Cell Type: Bacillus subtilis (H17 vs M45), Assay Type: Rec-assay, spot test, DNA effects (bacterial DNA repair), Assay Code: REW+, Evaluation Type: Evaluation A (Pre-1980)) “active; positive”; under setting [9], “active; positive”; (Species/Cell Type: Human, Assay Type: Sister-chromatid exchange (SCE) in vitro, Assay Code: SC1+, Evaluation Type: Evaluation B (Post-1980)) “active; positive”; (Species/Cell Type: Nonhuman, Assay Type: Sister-chromatid exchange (SCE) in vitro, Assay Code: SC2+, Evaluation Type: Evaluation B (Post-1980)) “active; positive”; under setting [7], “active; positive”.
With `CN(N=O)C(=O)Oc1ccccc1Cl`, the mutagenic call runs as follows: (Species/Cell Type: Bacillus subtilis (H17 vs M45T), Assay Type: Rec-assay, spot test, DNA effects (bacterial DNA repair), Assay Code: REX+, Evaluation Type: Evaluation A (Pre-1980)) “active; positive”; (Species/Cell Type: Escherichia coli WP2, Assay Type: Tryptophan reverse gene mutation, Assay Code: WP2+, Evaluation Type: Evaluation A (Pre-1980)) “active; positive”.
Regarding `O=C(CCCCCCCCC(=O)N1CC1)N1CC1`, the mutagenic call reads like this: (Species/Cell Type: Hordeum vulgare (barley), Assay Type: Chromosome aberrations, Assay Code: HOC+, Evaluation Type: Evaluation A (Pre-1980)) “active; positive”; (Species/Cell Type: Vicia faba, Assay Type: Chromosome aberrations, Assay Code: VIC+D, Dose Response: With dose response, Evaluation Type: Evaluation A (Pre-1980)) “active; positive”.
Turning to `Nc1ccc2nc3ccc(N)cc3[n+](-c3ccccc3)c2c1`, the mutagenic call under setting [10] is “no conclusion”.
Consider `Cc1cc(=O)oc2ccccc12`, for which the mutagenic call (Species/Cell Type: Allium cepa, Assay Type: Chromosome aberrations, Assay Code: ALC+, Evaluation Type: Evaluation A (Pre-1980)) was “active; positive”.
Turning to `Nc1ccn([C@@H]2O[C@H](CO)[C@@H](O)C2O)c(=O)n1` (some centres undefined), the mutagenic call is, setting by setting: under setting [1], “active; positive”; under setting [10], “no conclusion”; (Species/Cell Type: Ehrlich ascites tumor (mouse) cells, Assay Type: Chromosome aberrations, DNA effects, host-mediated assay, Assay Code: HMH+, Evaluation Type: Evaluation A (Pre-1980)) “active; positive”; (Species/Cell Type: Glycine max (soybean), Assay Type: Gene mutation, Assay Code: GLM-, Evaluation Type: Evaluation A (Pre-1980)) “inactive; negative”; (Species/Cell Type: Human lymphocytes or leukocytes, Assay Type: Chromosome aberrations in vitro, Assay Code: CY7+, Evaluation Type: Evaluation A (Pre-1980)) “active; positive”; under setting [9], “active; positive”. Moreover, the mutagenic call is, setting by setting: (Species/Cell Type: Human lymphocytes, Assay Type: Sister-chromatid exchange (SCE) in vitro, Assay Code: SCLT, Evaluation Type: Evaluation A (Pre-1980)) “no conclusion”; (Species/Cell Type: Human, Assay Type: Sister-chromatid exchange (SCE) in vitro, Assay Code: SC1+D, Dose Response: With dose response, Evaluation Type: Evaluation B (Post-1980)) “active; positive”; (Species/Cell Type: Human, Assay Type: Sister-chromatid exchange (SCE) in vitro, Assay Code: SC1T, Evaluation Type: Evaluation A (Pre-1980)) “no conclusion”; (Species/Cell Type: Mammalian polychromatic erythrocytes, Assay Type: Micronucleus test, chromosome aberrations, Assay Code: MNT+, Evaluation Type: Evaluation B (Post-1980)) “active; positive”; (Species/Cell Type: Mouse (C3H/10T1/2) cells, Assay Type: Cell transformation, Assay Code: CTH+, Evaluation Type: Evaluation A (Pre-1980)) “active; positive”; (Species/Cell Type: Nonhuman, Assay Type: Sister-chromatid exchange (SCE) in vitro, Assay Code: SC2+D, Dose Response: With dose response, Evaluation Type: Evaluation B (Post-1980)) “active; positive”. The mutagenic call was “no conclusion” (Species/Cell Type: Nonhuman, Assay Type: Sister-chromatid exchange (SCE) in vivo, Assay Code: SC3T, Evaluation Type: Evaluation A (Pre-1980)); “active; positive” under setting [6]; “active; positive” under setting [7].
With `Cc1cc(N(C)C)ccc1N=Nc1ccccc1`, the mutagenic call was “inactive; negative” (Species/Cell Type: Escherichia coli polA (W3110 vs P3478), Assay Type: Rec-assay, DNA effects (bacterial DNA repair), Assay Code: RE2-, Evaluation Type: Evaluation A (Pre-1980)); “no conclusion” (Species/Cell Type: Escherichia coli polA (W3119 vs P3478), Assay Type: Rec-assay, DNA effects (bacterial DNA repair), Assay Code: RE1T, Evaluation Type: Evaluation A (Pre-1980)); “active; positive” under setting [2]; “inactive; negative” (Species/Cell Type: Human diploid fibroblasts, Assay Type: Unscheduled DNA synthesis (UDS) in vitro, DNA effects, Assay Code: UDH-, Evaluation Type: Evaluation A (Pre-1980)); “inactive; negative” (Species/Cell Type: Mouse (BALB/c-3T3) cells, Assay Type: Cell transformation, Assay Code: CTB-, Evaluation Type: Evaluation A (Pre-1980)); “active; positive” under setting [3]. Also, the mutagenic call is, setting by setting: (Species/Cell Type: Rat primary hepatocytes, Assay Type: Unscheduled DNA synthesis (UDS) in vitro, DNA effects, Assay Code: UDPT, Evaluation Type: Evaluation A (Pre-1980)) “no conclusion”; (Species/Cell Type: Saccharomyces cerevisiae, Assay Type: Mitotic recombination or gene conversion, Assay Code: YEH+/-*, Activation: With metabolic activation, Evaluation Type: Evaluation A (Pre-1980)) “inactive; positive without activation, negative with activation”; (Species/Cell Type: Salmonella typhimurium (one or more of the five standard strains: TA98, TA100, TA1535, TA1537, and TA1538), Assay Type: Histidine reverse gene mutation, Ames assay, Assay Code: SAL+*, Activation: With metabolic activation, Evaluation Type: Evaluation A (Pre-1980)) “active; positive”; under setting [5], “active; positive”; (Species/Cell Type: Syrian hamster embryo (SHE) cells, Assay Type: Cell transformation, clonal assay, Assay Code: CTC-, Evaluation Type: Evaluation A (Pre-1980)) “inactive; negative”. Moreover, under “Species/Cell Type: Nonhuman, Assay Code: CCG+L, Evaluation Type: Evaluation A (Pre-1980)”, the call was “active; positive”.
With `CCCCC/C=C\C/C=C\C/C=C\C/C=C\CCCC(=O)O`, the mutagenic call (Species/Cell Type: Human, Assay Type: Sister-chromatid exchange (SCE) in vitro, Assay Code: SC1T, Evaluation Type: Evaluation B (Post-1980)) was “no conclusion”; the mutagenic call under setting [8] is listed as “no conclusion”; the mutagenic call (Species/Cell Type: Nonhuman, Assay Type: Sister-chromatid exchange (SCE) in vitro, Assay Code: SC2T, Evaluation Type: Evaluation B (Post-1980)) was “no conclusion”.
For the molecule `CC(=O)ON(C(C)=O)c1ccc(/C=C/c2ccccc2)cc1`, the mutagenic call was “active; positive” (Species/Cell Type: Saccharomyces cerevisiae, Assay Type: Mitotic recombination or gene conversion, Assay Code: YEC+, Evaluation Type: Evaluation A (Pre-1980)); “active; positive” under setting [4]; “active; positive” (Species/Cell Type: Saccharomyces cerevisiae, Assay Type: Reverse gene mutation, Assay Code: YER+, Evaluation Type: Evaluation A (Pre-1980)).
